Results: patent US20240219374A1, “A Triple Co-Culture System for Drug Screening of Patient-Derived Cancer Cells and Methods of Use” (OncoPrecision Corporation, priority 2021, published 2024)

How the values were obtained:
[1] = system: TC cells (human bone marrow stroma cell line HS-5, Cayenne-RFP); assay: Triple co-culture drug test (DART), flow cytometry: Tox Control cells; format: cell-based; details: for cytotoxic effect on the TC cells: Example 8, FIG. 9A, Panobinostat 5 nM, Cytarabine 22 nM + Daunorubicine 41 nM, Venetoclax 1.6 μM
Excerpt: DMSO treated wells were used as controls.

[2] = system: PDC cells from patient OP #23 (acute myeloid leukemia); assay: Triple co-culture drug test (DART), flow cytometry: PDC cells of patient OP #23; details: for cytotoxic effect on the PDC cells: Example 8, FIG. 9A, 6 days, Panobinostat 5 nM, Cytarabine 22 nM + Daunorubicine 41 nM, Venetoclax 1.6 μM, PDC:SC:TC 10:1:1
PDCs from an AML patient = assay: Magnetically printed 3D tumoroid triple co-culture, flow cytometry: PDCs; format: cell-based, human; details: 3D tumoroids; Cytarabine 200 nM; 6 days; 10,000 PDC, 3,000 SC, 8,000 TC cells
Procedure: (§1) The 3D tumoroid was formed with or without extracellular matrix (ECM) embedded in culture media. […] On day 1, when the tumoroids were in a fully compact 3D configuration, the multiwell plates containing the tumoroid replicas (1 per well) were subjected to a matrix of treatments, including mono-drugs and combinations.
(§2) Magnetically printed 3D patient-micro-avatars (PMAs) using PDCs from an AML patient were prepared. PDCs from a bone marrow aspirate were processed by Ficoll-Paque to isolate the PBMC fraction, which was printed into 3D tumoroids in co-culture with SC cells and TC cells. Particularly, 10,000 PDC cells were mixed with 3,000 SC cells, and 8,000 TC cells.
(§3) 3D tumoroids so formed were treated for 6 days with vehicle or Cytarabine at 200 nM. […] At the end of the treatment, tumoroids were analyzed first by florescence microscopy (left panel of FIG. 12B). The tumoroids were subsequentially disaggregated mechanically and analyzed by flow cytometry to quantify the surviving fraction of PDCs, SC cells, and TC cells (right panel of FIG. 12B).

SC cells = assay: Magnetically printed 3D tumoroid triple co-culture, flow cytometry: SC cells; format: cell-based; details: 3D tumoroids; Cytarabine 200 nM; 6 days
Procedure: as §1, §2, §3

TC cells = assay: Magnetically printed 3D tumoroid triple co-culture, flow cytometry: TC cells; format: cell-based; details: 3D tumoroids; Cytarabine 200 nM; 6 days
Procedure: as §1, §2, §3

SMILES | cytotoxic effect on the TC cells ([1]; 6 days) | cytotoxic effect on the PDC cells [2] | cytotoxic effects on the cancer cells (PDCs) (PDCs from an AML patient) | cytotoxic effects on the SC cells (SC cells) | cytotoxicity on the TC cells (TC cells) | cytotoxic activity on the TC cells ([1]; Example 9, FIG. 9C, four doses, 6 days) | effects on the TC cells ([1]; Example 12, FIG. 11B) | cytotoxic effects on the PDC cells ([2]; Example 12, FIG. 11B, top drugs alone or combined at the lowest dose, standard care in parallel)
Cc1[nH]c2ccccc2c1CCNCc1ccc(/C=C/C(=O)NO)cc1 [Panobinostat] | neither the PDC cells nor the TC cells showed a response | neither the PDC cells nor the TC cells showed a response | – | – | – | – | – | –
Nc1ccn([C@@H]2O[C@H](CO)[C@@H](O)[C@@H]2O)c(=O)n1 [cytarabine, Cytarabine] | – | – | strong cytotoxic effects | strong cytotoxic effects | moderate cytotoxicity | – | – | –
CC1(C)CCC(CN2CCN(c3ccc(C(=O)NS(=O)(=O)c4ccc(NCC5CCOCC5)c([N+](=O)[O-])c4)c(Oc4cnc5[nH]ccc5c4)c3)CC2)=C(c2ccc(Cl)cc2)C1 [Venetoclax] | no cytotoxic effect | strong cytotoxic effect | – | – | – | no cytotoxic activity | exerted effects | cytotoxic effects
